Measured values published in patent US20110104716A1, “NOVEL METHOD FOR SCREENING BRAIN-ACTIVE COMPOUNDS” (priority 2007, published 2011).
Entries after “also recorded” stand apart in the source; their conditions may differ. Like-named read-outs stand apart in the source and are kept apart here.

Tested on: hippocampal slices
Assay: Hippocampal slice cultures and induction of LTP (immunohistochemistry of LTP markers); for pCREB: key: ±: no change in the activation status; ++++: a qualitative maximal activation; ++: a half-maximum activation; −: a reduction of activation; for pMAPK: key: ±: no change in the activation status; ++++: a qualitative maximal activation; ++: a half-maximum activation; −: a reduction of activation
Type: cell-based, Wistar rats
Conditions: for AMPA rec. (AMPA receptors on the cell surface): 15 min treatment; for pMAPK / pCREB: relative activation vs vehicle treated sister cultures, 15 min treatment after 48 h in culture
Procedure: Seven-day-old Wistar rats were decapitated using a guillotine. In less than 1 minute the skull was opened, the cerebral hemispheres were separated and transferred and both hippocampi were dissected and transferred into ice cold buffer containing 137 mM NaCl, 5 mM KCl, 0.85 mM Na2HPO4, 1.5 mM CaCl2, 0.66 mM KH2PO4, 0.28 mM MgSO4, 1 mM MgCl2, 2.7 mM NaHCO3, 1 mM Kynurenic acid and 0.6% D-glucose. Transversal hippocampal slices (typically 400 μm) were prepared using a vibrating blade microtome (VT1200S; Leica Microsystems (Schweiz) AG, Heerbrugg, Switzerland) in the same buffer. Hippocampal slices were individually placed on a membrane insert (Millicell Culture Plate Inserts, 0.4 μm) and cultivated at 35° C., 5% CO2, 95% humidity in a medium containing a 1:1 mixture of BME and MEM (both from Invitrogen) containing 25% heat-inactivated horse serum, 1× GlutaMAX, 1× Penicillin/Streptomycin, 0.6% glucose and 1 mM Kynurenic acid (Stoppini et al. 1991 J Neurosci Methods 37(2):173-82). […] Sarcosine (100 μM) and ALX5407 (20 nM) were used routinely as positive controls. […] After the treatments, sections were washed and fixed for immunohistochemistry. Markers of enhanced synaptic activity, normally associated with LTP, representing an in vitro (or ex vivo) model of learning and memory, were quantified (see Table 1, below). Table 1. Relative activation of synaptic markers after treatment with both extracts and some of their constituent compounds in comparison to sister cultures treated with buffer. The activation of any of these markers (or a combination thereof) is observed in classical LTP experiments. Data are compared to vehicle treated sections, which is set as 100%.

[1] = compared to vehicle treated sections set as 100%
[2] = class symbol, vs vehicle treated sister cultures

| Compound | LTP-inducing activity (biochemical markers typical for LTP) | AMPA rec. (AMPA receptors on the cell surface) [1] | pMAPK | pCREB | AMPA rec. (AMPA receptors on the cell surface) [2] | LTP-inducing activity (biochemical markers typical for LTP) (listed as p-cemene) |
| --- | --- | --- | --- | --- | --- | --- |
| Cc1ccc(C(C)C)cc1O [Carvacrol] | lack the LTP-inducing activity | 0-176% | − |  |  |  |
| NCC(=O)O [Glycine] |  |  | ++ | ++ |  |  |
| C=CC(C)(O)CCC=C(C)C (centres unmarked) [Linalool] | lack the LTP-inducing activity |  | ± | ± | ± |  |
| Cc1ccc(C(C)C)cc1 [P-Cymene] | induce activation of biochemical pathway leading to LTP induction |  | ++++ | ++ | ± | induced biochemical markers typical for LTP |
| Cc1ccc(C(C)C)c(O)c1 [Thymol] | induced biochemical markers typical for LTP; also recorded: induce activation of biochemical pathway leading to LTP induction | 250-767% |  | ++++ |  |  |
| Caryophyllene | lack the LTP-inducing activity |  | ± | ± |  |  |
